According to patent US9164090B2, “Methods for detecting molecular interactions” (Korea Advanced Institute of Science and Technology, priority 2007, dated 2015):

Key:
FKBP protein = molecular target: T1, FKBP protein (Homo sapiens, UniProt P62942); assay: Formation of nano-assembly matrices of FKBP (wild type)-ferritin by AP1510 in Hela cells; assay type: cell-based; details: 1 μM AP1510
T1 construct: fluorescent protein (mRFP); ferritin (FT); expressed in transfected cells; host or cells: HeLa
From the text: In this experiment, a FKBP (wild type) protein was used as a material for inducing the formation of nano-assembly matrices, while an AP1510 compound was used as a material for mediating the binding between FKBP proteins. The AP1510 compound is a FK506-like compound and is a mediator (regulator) material, which has two moieties capable of binding to the FKBP protein, linked with each other by a linker, such that it can interact simultaneously with two molecules of the FKBP protein.
Two FKBP (wild type) proteins were continuously fused to ferritin and expressed in Hela cells. The cells were treated with 1 μM of the AP1510 compound, which is an FKBP interaction mediator (regulator) material, and the formation of nano-assembly matrices within 1 hour was observed through In-Cell Analyzer 1000 (GE) (FIG. 35). After the formation of the nano-assembly matrices was induced for 3 hours, the cells were treated with 250 nM of Rapamycin for 1 hour.
For the case where mRFP was attached to the FKBP protein in Example 7, various fluorescent proteins, such as ECFP, TagCFP and mTFP1, were attached to the FKBP protein to examine the effect of the AP1510 compound on the induction of formation of nano-assembly matrices.
FKBP was fused to the ferritin protein, and the three different fluorescent proteins were attached between FKBP and ferritin, and then expressed in Hela cells. […]

IkBα and IKKb = assay: Formation of nano-assembly matrix by IKKb-IkBα interaction on physiological signal in Hela cells; assay type: cell-based; details: TNFa treatment; FRB-ECFP-FT, IKKb-mRFP-FKBP and IkBα-YFP-FKBP
From the text: In another example, IKKb-IkBα proteins were used as prey-bait, and TNFa was used as a material for mediating (regulating) the interaction between them. The IkBα and IKKb proteins interact with each other, only when a physiological external signal of TNFa is transferred to cells. The interaction between phosphorylase (such as IKKb) and IkBα that is the substrate thereof is known as one of the weakest interactions in cells. The recombinant genes FRB-ECFP-FT, IKKb-mRFP-FKBP and IkBα-YFP-FKBP were introduced together into Hela cells, and each of the fusion proteins was expressed in the cells.

T1 sequence (P62942 whole entry): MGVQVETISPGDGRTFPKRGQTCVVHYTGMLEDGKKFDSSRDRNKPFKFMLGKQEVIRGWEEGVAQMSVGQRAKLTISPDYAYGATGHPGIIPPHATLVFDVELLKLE

time to formation of nano-assembly matrices (FKBP protein; two FKBP (wild type) fused to ferritin) | Molecule | induction of formation of nano-assembly matrices depending on fluorescent protein (FKBP protein; ECFP, TagCFP or mTFP1 between FKBP and ferritin) | formation of nano-assembly matrix (IkBα and IKKb)
≤ 1 h | CCC(C)(C)C(=O)C(=O)N1CCCC[C@H]1C(=O)O[C@H](CCc1ccc(OC)c(OC)c1)c1cccc(OCC(=O)NCCNC(=O)COc2cccc([C@@H](CCc3ccc(OC)c(OC)c3)OC(=O)[C@@H]3CCCCN3C(=O)C(=O)C(C)(C)CC)c2)c1 [AP1510] | induced more effectively in the case of TagCFP-mTFP1 and mTFP1 than the case of ECFP | –
– | TNFa | – | a large nano-assembly matrix was formed in cells
